Reference: ChEMBL document CHEMBL4828725 (Eur J Med Chem, 2021)

Columns and labels:
[1] = Inhibition of jack bean alpha-mannosidase using p-nitrophenyl glycoside as substrate assessed as release of p-nitrophenol measured by spectrometric assay; parameters: species or system Canavalia ensiformis
Bos taurus [2] = species on record: Bos taurus; test: Inhibition of bovine liver beta-glucosidase using p-nitrophenyl glycoside as substrate assessed as release of p-nitrophenol at 1000 uM measured by spectrometric assay relative to control; type: tissue-based
Alpha-galactosidase = Alpha-galactosidase (Coffea arabica, UniProt Q42656); test: Inhibition of coffee beans alpha-galactosidase using p-nitrophenyl glycoside as substrate assessed as release of p-nitrophenol measured by spectrometric assay
Sequence of Alpha-galactosidase (Q42656 whole entry): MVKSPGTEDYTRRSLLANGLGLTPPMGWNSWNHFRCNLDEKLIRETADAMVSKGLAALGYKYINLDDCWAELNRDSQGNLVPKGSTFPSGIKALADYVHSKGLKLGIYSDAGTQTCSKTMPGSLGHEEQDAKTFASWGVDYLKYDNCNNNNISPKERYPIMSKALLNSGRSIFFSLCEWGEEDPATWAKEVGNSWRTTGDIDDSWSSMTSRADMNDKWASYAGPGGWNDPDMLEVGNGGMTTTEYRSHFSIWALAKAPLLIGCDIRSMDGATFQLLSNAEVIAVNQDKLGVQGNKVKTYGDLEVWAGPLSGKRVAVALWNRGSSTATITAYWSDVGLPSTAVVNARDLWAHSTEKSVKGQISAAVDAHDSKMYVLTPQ

[3] = Inhibition of Aspergillus niger amyloglucosidase using p-nitrophenyl glycoside as substrate assessed as release of p-nitrophenol measured by spectrometric assay
Aspergillus niger = test: Inhibition of Aspergillus niger amyloglucosidase using p-nitrophenyl glycoside as substrate assessed as release of p-nitrophenol at 1000 uM measured by spectrometric assay relative to control
[4] = molecular target: Alpha-galactosidase (Coffea arabica) (UniProt Q42656); test: Inhibition of coffee beans alpha-galactosidase using p-nitrophenyl glycoside as substrate assessed as release of p-nitrophenol at 1000 uM measured by spectrometric assay relative to control
Sequence of Alpha-galactosidase (Coffea arabica) (Q42656 16-378 limits assumed): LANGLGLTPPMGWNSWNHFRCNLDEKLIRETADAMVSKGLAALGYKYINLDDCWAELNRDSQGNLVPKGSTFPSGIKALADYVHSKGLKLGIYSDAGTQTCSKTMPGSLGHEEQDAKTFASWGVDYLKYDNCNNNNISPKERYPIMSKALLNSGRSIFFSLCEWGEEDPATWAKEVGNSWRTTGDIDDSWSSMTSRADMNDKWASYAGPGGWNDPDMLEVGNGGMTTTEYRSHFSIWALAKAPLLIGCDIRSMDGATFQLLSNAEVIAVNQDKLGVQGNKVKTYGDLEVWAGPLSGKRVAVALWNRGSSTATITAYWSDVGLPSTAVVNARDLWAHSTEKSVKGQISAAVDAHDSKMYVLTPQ

[5] = molecular target: T1, Alpha-mannosidase (Canavalia ensiformis) (UniProt C0HJB3); test: Inhibition of jack bean alpha-mannosidase using p-nitrophenyl glycoside as substrate assessed as release of p-nitrophenol at 1000 uM measured by spectrometric assay relative to control
T1 sequence (whole entry): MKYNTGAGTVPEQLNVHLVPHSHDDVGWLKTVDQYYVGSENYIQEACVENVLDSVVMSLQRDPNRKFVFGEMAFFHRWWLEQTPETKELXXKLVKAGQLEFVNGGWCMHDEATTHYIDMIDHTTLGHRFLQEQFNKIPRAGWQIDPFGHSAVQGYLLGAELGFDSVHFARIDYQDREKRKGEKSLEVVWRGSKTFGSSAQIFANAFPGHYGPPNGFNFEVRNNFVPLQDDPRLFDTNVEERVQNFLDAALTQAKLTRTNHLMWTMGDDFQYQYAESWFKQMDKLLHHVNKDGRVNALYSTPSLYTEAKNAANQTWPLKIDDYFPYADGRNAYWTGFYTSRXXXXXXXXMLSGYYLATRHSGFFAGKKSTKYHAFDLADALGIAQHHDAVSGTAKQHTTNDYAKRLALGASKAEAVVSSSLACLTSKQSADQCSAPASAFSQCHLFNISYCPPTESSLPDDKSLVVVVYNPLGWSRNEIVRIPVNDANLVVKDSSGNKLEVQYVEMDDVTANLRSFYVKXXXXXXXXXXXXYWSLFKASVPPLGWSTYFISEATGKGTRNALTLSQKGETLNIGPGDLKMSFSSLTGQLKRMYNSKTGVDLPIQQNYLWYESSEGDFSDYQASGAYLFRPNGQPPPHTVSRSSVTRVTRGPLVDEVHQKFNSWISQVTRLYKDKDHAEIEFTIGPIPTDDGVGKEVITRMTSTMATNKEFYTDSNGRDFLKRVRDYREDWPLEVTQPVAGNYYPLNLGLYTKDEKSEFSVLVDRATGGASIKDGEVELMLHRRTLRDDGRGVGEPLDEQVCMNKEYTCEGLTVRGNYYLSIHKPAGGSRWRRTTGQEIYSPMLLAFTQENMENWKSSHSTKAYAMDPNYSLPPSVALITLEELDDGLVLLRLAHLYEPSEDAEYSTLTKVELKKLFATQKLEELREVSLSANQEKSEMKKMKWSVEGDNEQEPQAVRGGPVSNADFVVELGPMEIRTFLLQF

[6] = Inhibition of rice alpha-glucosidase using p-nitrophenyl glycoside as substrate assessed as release of p-nitrophenol measured by spectrometric assay; parameters: species or system Oryza sativa; conditions: read-out: IC50
[7] = Inhibition of bovine liver beta-galactosidase using p-nitrophenyl glycoside as substrate assessed as release of p-nitrophenol measured by spectrometric assay; type: tissue-based, Bos taurus
[8] = Inhibition of Penicillium decumbens alpha-L-rhamnosidase using p-nitrophenyl glycoside as substrate assessed as release of p-nitrophenol measured by spectrometric assay
Rattus norvegicus = species on record: Rattus norvegicus; test: Inhibition of rat intestinal maltase using maltose as substrate assessed as release of D-glucose at 1000 uM measured by spectrometric assay
[9] = Inhibition of almond beta-glucosidase using p-nitrophenyl glycoside as substrate assessed as release of p-nitrophenol measured by spectrometric assay; parameters: species or system Prunus dulcis
[10] = molecular target: Beta-glucuronidase (Escherichia coli (strain K12)) (UniProt P05804); test: Inhibition of Escherichia coli beta-glucuronidase using p-nitrophenyl glycoside as substrate assessed as release of p-nitrophenol at 1000 uM measured by spectrometric assay relative to control
Sequence of Beta-glucuronidase (Escherichia coli (strain K12)) (P05804 whole entry, looked up): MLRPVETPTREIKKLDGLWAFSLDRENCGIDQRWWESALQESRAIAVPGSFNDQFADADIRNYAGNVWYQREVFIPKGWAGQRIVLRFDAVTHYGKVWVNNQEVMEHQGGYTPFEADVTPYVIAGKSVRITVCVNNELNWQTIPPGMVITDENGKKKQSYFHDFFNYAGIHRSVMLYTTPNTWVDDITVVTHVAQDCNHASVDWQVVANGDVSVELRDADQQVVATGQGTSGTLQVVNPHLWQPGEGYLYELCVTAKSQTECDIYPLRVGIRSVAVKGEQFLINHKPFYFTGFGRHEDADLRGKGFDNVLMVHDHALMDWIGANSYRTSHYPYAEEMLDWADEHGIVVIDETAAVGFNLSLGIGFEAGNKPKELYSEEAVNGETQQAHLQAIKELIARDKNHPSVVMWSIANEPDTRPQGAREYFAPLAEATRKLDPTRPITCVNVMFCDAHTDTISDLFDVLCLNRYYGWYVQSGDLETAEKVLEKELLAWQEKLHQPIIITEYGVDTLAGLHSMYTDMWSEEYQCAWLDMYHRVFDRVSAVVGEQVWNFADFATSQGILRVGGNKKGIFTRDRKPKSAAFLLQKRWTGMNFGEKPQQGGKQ

Beta-glucuronidase = Beta-glucuronidase (Escherichia coli (strain K12), UniProt P05804); test: Inhibition of Escherichia coli beta-glucuronidase using p-nitrophenyl glycoside as substrate assessed as release of p-nitrophenol measured by spectrometric assay
Sequence of Beta-glucuronidase (P05804 whole entry): as the sequence (P05804 whole entry, looked up) above

[11] = Inhibition of bovine liver beta-glucosidase using p-nitrophenyl glycoside as substrate assessed as release of p-nitrophenol measured by spectrometric assay; parameters: species or system Bos taurus
[12] = molecular target: T2, Tissue alpha-L-fucosidase (Bos taurus) (UniProt Q2KIM0); test: Inhibition of bovine kidney alpha-L-fucosidase using p-nitrophenyl glycoside as substrate assessed as release of p-nitrophenol at 1000 uM measured by spectrometric assay relative to control; type: tissue-based
T2 sequence (whole entry): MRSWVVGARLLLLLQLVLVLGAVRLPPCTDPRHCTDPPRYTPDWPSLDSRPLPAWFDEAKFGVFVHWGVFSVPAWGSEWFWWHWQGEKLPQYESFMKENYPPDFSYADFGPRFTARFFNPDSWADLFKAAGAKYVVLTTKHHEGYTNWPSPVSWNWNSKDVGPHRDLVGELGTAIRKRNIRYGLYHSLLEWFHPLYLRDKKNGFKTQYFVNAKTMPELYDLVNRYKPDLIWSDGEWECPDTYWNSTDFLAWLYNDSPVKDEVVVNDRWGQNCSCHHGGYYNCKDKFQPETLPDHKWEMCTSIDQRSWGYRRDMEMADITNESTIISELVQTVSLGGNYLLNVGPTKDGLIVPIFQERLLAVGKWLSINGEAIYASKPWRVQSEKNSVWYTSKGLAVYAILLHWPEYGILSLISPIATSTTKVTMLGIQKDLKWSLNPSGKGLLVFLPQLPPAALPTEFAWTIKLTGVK

[13] = molecular target: T3, Sucrase-isomaltase, intestinal (Rattus norvegicus, UniProt P23739); test: Inhibition of rat intestinal sucrase using p-nitrophenyl glycoside as substrate assessed as release of p-nitrophenol measured by spectrometric assay
T3 sequence (P23739 1-1013 limits assumed): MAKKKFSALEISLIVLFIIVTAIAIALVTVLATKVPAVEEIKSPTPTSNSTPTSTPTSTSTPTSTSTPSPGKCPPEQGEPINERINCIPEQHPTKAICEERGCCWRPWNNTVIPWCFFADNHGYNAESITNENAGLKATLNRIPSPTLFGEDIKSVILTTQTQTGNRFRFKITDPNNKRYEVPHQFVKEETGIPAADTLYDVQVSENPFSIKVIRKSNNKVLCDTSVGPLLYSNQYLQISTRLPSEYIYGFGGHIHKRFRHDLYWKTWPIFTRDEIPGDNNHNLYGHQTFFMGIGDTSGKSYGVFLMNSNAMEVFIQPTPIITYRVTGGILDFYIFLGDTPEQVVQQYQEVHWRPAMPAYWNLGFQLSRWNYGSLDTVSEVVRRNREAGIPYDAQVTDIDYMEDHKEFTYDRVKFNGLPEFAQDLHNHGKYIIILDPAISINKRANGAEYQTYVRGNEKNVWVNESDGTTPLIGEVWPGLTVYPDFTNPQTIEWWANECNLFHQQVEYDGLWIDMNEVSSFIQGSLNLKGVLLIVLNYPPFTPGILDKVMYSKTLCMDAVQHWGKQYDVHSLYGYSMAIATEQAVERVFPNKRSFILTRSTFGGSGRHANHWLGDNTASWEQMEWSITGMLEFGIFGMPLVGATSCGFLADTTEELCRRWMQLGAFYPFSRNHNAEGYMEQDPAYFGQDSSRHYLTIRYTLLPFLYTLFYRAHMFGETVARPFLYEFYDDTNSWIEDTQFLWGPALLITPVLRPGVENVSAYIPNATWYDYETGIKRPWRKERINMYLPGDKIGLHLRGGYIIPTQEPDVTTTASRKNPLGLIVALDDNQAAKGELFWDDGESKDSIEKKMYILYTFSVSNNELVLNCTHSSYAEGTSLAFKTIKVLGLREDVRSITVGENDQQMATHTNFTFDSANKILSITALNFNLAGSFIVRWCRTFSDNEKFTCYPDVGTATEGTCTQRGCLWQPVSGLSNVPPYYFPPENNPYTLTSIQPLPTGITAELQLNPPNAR
T3 sequence (P23739 1014-1841 limits assumed): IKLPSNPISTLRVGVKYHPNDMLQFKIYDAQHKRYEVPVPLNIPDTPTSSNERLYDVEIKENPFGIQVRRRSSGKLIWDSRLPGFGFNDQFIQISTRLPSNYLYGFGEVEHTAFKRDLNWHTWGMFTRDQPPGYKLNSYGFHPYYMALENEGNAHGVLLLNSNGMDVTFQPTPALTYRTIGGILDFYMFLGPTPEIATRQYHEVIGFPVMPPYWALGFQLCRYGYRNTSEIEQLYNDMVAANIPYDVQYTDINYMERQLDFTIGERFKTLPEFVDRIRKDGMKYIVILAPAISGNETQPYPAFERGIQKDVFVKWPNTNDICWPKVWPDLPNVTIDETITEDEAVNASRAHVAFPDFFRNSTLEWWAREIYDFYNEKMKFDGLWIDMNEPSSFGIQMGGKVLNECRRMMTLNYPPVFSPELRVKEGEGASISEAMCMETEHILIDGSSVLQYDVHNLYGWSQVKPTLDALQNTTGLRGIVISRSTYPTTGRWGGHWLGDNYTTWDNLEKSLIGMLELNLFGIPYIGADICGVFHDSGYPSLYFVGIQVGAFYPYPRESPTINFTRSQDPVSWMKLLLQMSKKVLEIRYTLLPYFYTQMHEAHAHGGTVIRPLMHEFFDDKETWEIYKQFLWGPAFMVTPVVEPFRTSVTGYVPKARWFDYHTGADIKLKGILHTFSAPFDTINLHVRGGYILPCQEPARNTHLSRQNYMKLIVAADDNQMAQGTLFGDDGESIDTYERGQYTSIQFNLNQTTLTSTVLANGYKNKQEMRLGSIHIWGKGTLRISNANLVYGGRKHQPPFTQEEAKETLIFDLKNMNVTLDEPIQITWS

Penicillium decumbens = test: Inhibition of Penicillium decumbens alpha-L-rhamnosidase using p-nitrophenyl glycoside as substrate assessed as release of p-nitrophenol at 1000 uM measured by spectrometric assay relative to control
[14] = Inhibition of rat intestinal maltase using maltose as substrate assessed as release of D-glucose measured by spectrometric assay
[15] = molecular target: T4, Tissue alpha-L-fucosidase (Bos taurus, UniProt Q2KIM0); test: Inhibition of bovine kidney alpha-L-fucosidase using p-nitrophenyl glycoside as substrate assessed as release of p-nitrophenol measured by spectrometric assay
T4 sequence (Q2KIM0 whole entry): T2 sequence (whole entry)

[16] = Inhibition of porcine kidney alpha-trehalase using p-nitrophenyl glycoside as substrate assessed as release of p-nitrophenol measured by spectrometric assay; parameters: species or system Sus scrofa
Bos taurus [17] = species on record: Bos taurus; test: Inhibition of bovine liver beta-galactosidase using p-nitrophenyl glycoside as substrate assessed as release of p-nitrophenol at 1000 uM measured by spectrometric assay relative to control
[18] = molecular target: T3, Sucrase-isomaltase, intestinal; test: Inhibition of rat intestinal isomaltase using p-nitrophenyl glycoside as substrate assessed as release of p-nitrophenol measured by spectrometric assay
Helix pomatia = test: Inhibition of snail beta-mannosidase using p-nitrophenyl glycoside as substrate assessed as release of p-nitrophenol at 1000 uM measured by spectrometric assay relative to control
[19] = Inhibition of snail beta-mannosidase using p-nitrophenyl glycoside as substrate assessed as release of p-nitrophenol measured by spectrometric assay; parameters: species or system Helix pomatia
Prunus dulcis = test: Inhibition of almond beta-glucosidase using p-nitrophenyl glycoside as substrate assessed as release of p-nitrophenol at 1000 uM measured by spectrometric assay relative to control
Sus scrofa = species on record: Sus scrofa; test: Inhibition of porcine kidney alpha-trehalase using p-nitrophenyl glycoside as substrate assessed as release of p-nitrophenol at 1000 uM measured by spectrometric assay relative to control

SMILES: CCC[C@@]1(CO)NC[C@H](O)[C@@H](O)[C@@H]1O.Cl
- IC50 [1]: Not Active
- inhibition (Bos taurus [2]): 9.1%
- IC50 (Alpha-galactosidase): Not Active
- IC50 [3]: Not Active
- inhibition (Aspergillus niger): 2.3%
- inhibition [4]: 9.6%
- inhibition [5]: 13.8%
- IC50 [6]: 82 µM
- IC50 [7]: Not Active
- IC50 [8]: Not Active
- inhibition (Rattus norvegicus): 0%
- IC50 [9]: Not Active
- inhibition [10]: 42.1%
- IC50 (Beta-glucuronidase): Not Active
- IC50 [11]: Not Active
- inhibition [12]: 30.4%
- IC50 ([13]; read-out: IC50): 94 µM
- inhibition (Penicillium decumbens): 2.7%
- IC50 [14]: 134 µM
- IC50 [15]: Not Active
- IC50 [16]: Not Active
- inhibition (Bos taurus [17]): 15.4%
- IC50 [18]: Not Active
- inhibition (Helix pomatia): 4.9%
- IC50 [19]: Not Active
- inhibition (Prunus dulcis): 19.5%
- inhibition (Sus scrofa): 2.7%

SMILES: CCCCCCCC[C@@]1(CO)NC[C@H](O)[C@@H](O)[C@@H]1O.Cl
- IC50 [1]: Not Active
- inhibition (Bos taurus [2]): 19%
- IC50 (Alpha-galactosidase): Not Active
- IC50 [3]: Not Active
- inhibition (Aspergillus niger): 0.83%
- inhibition [4]: 3.3%
- inhibition [5]: 9.6%
- IC50 [6]: 123 µM
- IC50 [7]: Not Active
- IC50 [8]: Not Active
- inhibition (Rattus norvegicus): 23.2%
- IC50 [9]: Not Active
- inhibition [10]: 9.4%
- IC50 (Beta-glucuronidase): Not Active
- IC50 [11]: Not Active
- inhibition [12]: 5.5%
- IC50 [13]: Not Active
- inhibition (Penicillium decumbens): 6%
- IC50 [14]: 224 µM
- IC50 [15]: Not Active
- IC50 [16]: Not Active
- inhibition (Bos taurus [17]): 44.9%
- IC50 [18]: Not Active
- inhibition (Helix pomatia): 4.9%
- IC50 [19]: Not Active
- inhibition (Prunus dulcis): 14.8%
- inhibition (Sus scrofa): 0%

SMILES: CCCCC[C@@]1(CO)NC[C@H](O)[C@@H](O)[C@@H]1O.Cl
- IC50 [1]: Not Active
- inhibition (Bos taurus [2]): 9.2%
- IC50 (Alpha-galactosidase): Not Active
- IC50 [3]: Not Active
- inhibition (Aspergillus niger): 0%
- inhibition [4]: 1.7%
- inhibition [5]: 1.2%
- IC50 [6]: 48 µM
- IC50 [7]: Not Active
- IC50 [8]: Not Active
- inhibition (Rattus norvegicus): 15.1%
- IC50 [9]: Not Active
- inhibition [10]: 3.9%
- IC50 (Beta-glucuronidase): Not Active
- IC50 [11]: Not Active
- inhibition [12]: 0%
- IC50 [13]: Not Active
- inhibition (Penicillium decumbens): 0%
- IC50 [14]: 156 µM
- IC50 [15]: Not Active
- IC50 [16]: Not Active
- inhibition (Bos taurus [17]): 18.7%
- IC50 [18]: Not Active
- inhibition (Helix pomatia): 4%
- IC50 [19]: Not Active
- inhibition (Prunus dulcis): 4.4%
- inhibition (Sus scrofa): 5.3%

SMILES: CCCCCC[C@@]1(CO)NC[C@H](O)[C@@H](O)[C@@H]1O.Cl
- IC50 [1]: Not Active
- inhibition (Bos taurus [2]): 15.7%
- IC50 (Alpha-galactosidase): Not Active
- IC50 [3]: Not Active
- inhibition (Aspergillus niger): 13.2%
- inhibition [4]: 8%
- inhibition [5]: 6.7%
- IC50 [6]: 257 µM
- IC50 [7]: Not Active
- IC50 [8]: Not Active
- inhibition (Rattus norvegicus): 11.6%
- IC50 [9]: Not Active
- inhibition [10]: 17.2%
- IC50 (Beta-glucuronidase): Not Active
- IC50 [11]: Not Active
- inhibition [12]: 0.9%
- IC50 [13]: Not Active
- inhibition (Penicillium decumbens): 1.5%
- IC50 [14]: 272 µM
- IC50 [15]: Not Active
- IC50 [16]: Not Active
- inhibition (Bos taurus [17]): 24.8%
- IC50 [18]: Not Active
- inhibition (Helix pomatia): 2.8%
- IC50 [19]: Not Active
- inhibition (Prunus dulcis): 2.5%
- inhibition (Sus scrofa): 3.4%
